These are literature values, as cited in patent publication US20130324399A1, “FUNGICIDAL COMPOSITIONS AND METHODS OF USE” (Bayer Cropscience LP, priority 2010, published 2013).

For this data set, the system named is Pythium spp. Conditions: Triadimenol, 15% w/v.

Regarding `CC(C)(C)C(O)C(Oc1ccc(Cl)cc1)n1cncn1` (stereo not shown) [Triadimenol, triadimenol], the “activity against Pythium spp.” value is “no activity”.
